What was measured:
[1] = target: T1, human FXRalpha ligand binding domain (LBD) (Homo sapiens, UniProt Q96RI1); experiment: FRET activity assay (ligand mediated cofactor peptide interaction, LANCE); type: biochemical; settings: GST-FXR-LBD / biotinylated SRC-1 peptide (676-700)
T1 construct: made in house; host or cells: E. coli BL21(DE3), vector pDEST15
T1 sequence (Q96RI1 187-472 isoform Q96RI1-2): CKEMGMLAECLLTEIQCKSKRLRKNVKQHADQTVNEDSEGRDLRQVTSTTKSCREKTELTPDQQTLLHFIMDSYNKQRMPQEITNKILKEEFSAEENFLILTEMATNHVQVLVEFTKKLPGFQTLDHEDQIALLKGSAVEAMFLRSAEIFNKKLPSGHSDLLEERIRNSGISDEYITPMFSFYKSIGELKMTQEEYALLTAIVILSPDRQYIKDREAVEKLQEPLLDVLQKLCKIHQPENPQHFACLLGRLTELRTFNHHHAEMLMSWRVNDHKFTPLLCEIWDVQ
Method in brief: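 GST-tagged human FXRα LBD (aa 187-472) from E. coli, with biotinylated SRC-1 peptide 676-700 (200-600 nM), Eu anti-GST and streptavidin-APC in Tris pH 7.5 buffer, 1% DMSO. One hour at room temperature in the dark, then time-resolved FRET read as the 665/615 nm ratio.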

[2] = Aqueous solubility assay, Protocol A, nephelometry method; type: physicochemical; settings: PBS with 5% DMSO, aqueous with cosolvent or surfactant or cyclodextrin, kinetic from dmso stock, PBS pH 7.4, 5% DMSO, 23° C., 24 hours, read-out: Aqueous solubility pH 7.4
Procedure: Aqueous solubility of compounds was determined by nephelometry or by the shake-flask method as follows:
Protocol A, nephelometry method:
Solubility of compounds was measured in PBS (pH 7.4), 5% DMSO at 23° C. Nepheloskan Ascent (Thermo Electron Corporation) nephelometer was used for measurement of light scattering. Tested compounds were dissolved in DMSO to 10 mM. Prior to measurement the compounds were further diluted with PBS in the wells to final compound concentrations of 100, 70, 50, 35, 25, 17, 12 and <10 μg/ml.
The plates were incubated at room temperature for 24 hours to reach equilibrium and the scattered light was measured. Assay validation: Aqueous solubility of acetylsalicylic acid was determined to validate the assay.
The following compounds of Table 2 exemplify such solubility with “−−” meaning solubility<2 μM, “+” meaning 2 μM solubility 100 μM and “++” meaning solubility

[3] = Rat hepatocyte stability assay; type: in vitro ADME; settings: hepatocytes, 37° C., 60 minute, read-out: Rat hepatocyte clearance
Procedure: Compound stability towards rat hepatocytes was determined as follows: The hepatocytes are incubated with the test compound at 37° C. Samples are removed at the appropriate time points into methanol to terminate the reaction. Following centrifugation, the supernatant is analysed by LC-MS/MS. The disappearance of test compound is monitored over a 60 minute time period. The In peak area ratio (compound peak area/internal standard peak area) is plotted against time and the gradient of the line determined. Finally, half life t1/2 and Intrinsic clearance CLint is computed by the following equations: elimination rate konstant (k)=−gradient; t1/2 (min)=0.693/k; V (μl/10^6 cells)=volume of incubation (μl)/number of cells (*10^6); CLint (μl/min/10^6cells protein)=V*0.693/t1/2.

SMILES	IC50 [1] [nM]	solubility at 24 h [2] [µM]	hepatocyte CLint [3] [µL/min/1e6 cells]
CC(C)c1onc(-c2c(Cl)cccc2Cl)c1COc1ccc(N(C)Cc2ccc(C(=O)O)cc2)c(C(F)(F)F)n1 [Example 28, 4(((6-((3-(2,6-Dichlorophenyl)-5-isopropylisoxazol-4-yl)methoxy)-2-(trifluoromethyl)pyridin-3-yl)(methyl)amino)methyl)benzoic acid]	≤ 1000		
Cc1nc(OCc2c(-c3c(Cl)cccc3Cl)noc2C(C)C)ccc1N(C)S(=O)(=O)c1ccc(C(=O)O)cc1 [Example 4, 4-(N-(6-((3-(2,6-dichlorophenyl)-5-isopropylisoxazol-4-yl)methoxy)-2-methylpyridin-3-yl)—N-methylsulfamoyl)benzoic acid]	≤ 1000	> 100	7.1
CC(C)c1onc(-c2c(Cl)cccc2Cl)c1COc1ccc(/C=C/c2cccc(C(=O)O)c2)c(Cl)c1 [Compound B, reference compound]		< 2	45
CC(C)c1onc(-c2c(Cl)cccc2Cl)c1COc1ccc(N(C)C(=O)c2ccc(C(=O)O)cc2)c(C(F)(F)F)n1 [Example 7, N-{6-[3-(2,6-dichloro-phenyl)-5-isopropyl-isoxazol-4-ylmethoxy]-2-trifluoromethyl-pyridin-3-yl}-N-methyl-terephthalamic acid]	≤ 1000	> 100	0.7

— US20100184809A1, “Heterocyclic FXR Binding Compounds” (PHENEX PHARMACEUTICALS AG, priority 2006, published 2010)
